Read-outs that look alike come from different tables or passages of the source. Starred links: 1 amine or outer side, 2 acyl side, 3 side chain; linkers in the order of their positions; H or OH if unused. Positions of bridges follow the written chain, without caps; N, C: chain ends. Non-standard residues stand in square brackets, D forms with d. Residues, ends and D or L forms follow the SMILES beside them. Chains are numbered I, II in the order given. *: point of attachment. isoGln = NC(=O)[C@H](CCC(=O)[*:2])N[*:1]; εLys = N[C@@H](CCCCN[*:1])C(=O)[*:2]; Dab = NCC[C@H](N)C(=O)O; PhAc = O=C(Cc1ccccc1)*
Experiments:
[1] = PK of Compound 1, 6-hour intravenous infusion in healthy men and women (Period 1); assay type: in vivo, human
Method: The administered volume was recorded for each subject.
In some instances, endpoints of the study were: vital signs (e.g., supine blood pressure, pulse, and body temperature), electrocardiogram (ECG) (e.g., intervals, rhythm, and morphology), cardiac function (e.g., cardiac output using echocardiography), peripheral blood flow/tissue perfusion (e.g., by skin color), venous blood gases (e.g., lactate), urinary output, clinical chemistry, hematology, hemostasis, and urinalysis, adverse events (AEs) (e.g., type, frequency, and intensity), pharmacokinetics (e.g., AUC, AUCt, AUCτ, % Extrap AUC, Cmax, tmax, CL, Vz, t1/2, MRT, Vss, F, Ae, and CLR), and metabolite pattern in plasma and urine.

[2] = Tolerability in healthy monkeys; assay type: in vivo, cynomolgus monkey; conditions: non-human primates
Method: Clinical observations were made before and after dosing. IV administration
The data reported herein were collected over 19 dosing sessions of four animals each, using a total of six monkeys. Animals were repeat dosed in a crossover design with at least one animal receiving vehicle for each round; the animal receiving vehicle was varied between rounds. A 48- to 72-h washout period was used between dosing sessions. Animals were observed by camera for ~1 h before dosing (covering the baseline period) and up to 3 h after dosing.

[3] = tested on: CCl4-induced rat model of cirrhosis and ascites; experiment: CCl4-induced cirrhosis and ascites rats, cohort 1 (SC bolus b.i.d. 3 days), renal excretory function; assay type: in vivo
Method: Animals: 90 male Wistar rats (Charles River Laboratories, Espana S.A) weighing 200-220 grams at the time of receipt were subjected to a cirrhosis induction program; high dose CCl4 was administered by inhalation twice weekly (Monday and Friday) and phenobarbital (0.3 g/L) was added to drinking water. In some instances, liver damage in this model is caused by hepatotoxic CCl4 metabolites produced in the liver. In some instances, phenobarbital induction of the microsomal enzyme oxidizing system exaggerates the intensity of the hepatic necrosis. The data was collected from the treatment of 44 cirrhotic rats with ascites. Animals were allowed free access to food and water throughout the study.
The study consisted of 3 treatment cohorts, as detailed in Table 10. Animals developing and maintaining ascites for 2 weeks were randomly assigned to treatment groups. Ringer Braun saline solution was used as vehicle. IV bolus were administered via femoral veins.
This study was performed at the Hospital Clinic (Barcelona, Spain). Measurements and/or samples were collected for additional experimental parameters (e.g., water intake, urine osmolality, serum samples, tissue samples, etc.) but data are not reported.
Cohort 1: Animals were placed into metabolic cages for continuous urine collection and administered 100 μg/kg FE 204205 or vehicle by SC bolus for 3 days (see Table 3 for details). Measurements of body weight, urine volume, and urine sodium content were taken prior to treatment (Day 0) and daily over the course of treatment administration. After 3 days of treatment, the volume of ascites was measured by aspiration and the animals were sacrificed by isofluorane overdose.

SMILES: CC[C@H](C)[C@@H]1NC(=O)[C@H](Cc2ccccc2)NC(=O)[C@@H](N)CSSC[C@@H](C(=O)N2CCC[C@H]2C(=O)N[C@@H](CCNC(=O)[C@@H](N)CCCCNC(=O)[C@H](CCCCNC(C)=O)NC(=O)CC[C@H](NC(=O)[C@H](CCCNC(=N)N)NC(=O)[C@@H]2CCCN2C(=O)[C@H](C)NC(=O)[C@H](CC(N)=O)NC(=O)[C@H](CCC(N)=O)NC(=O)[C@H](Cc2ccccc2)NC(=O)[C@@H](Cc2ccc(OC)cc2)NC(=O)Cc2ccccc2)C(N)=O)C(=O)NCC(N)=O)NC(=O)[C@H](CC(N)=O)NC(=O)[C@H](CCC(N)=O)NC1=O [Compound 1, Glycinamide, L-cysteinyl-L-phenylalanyl-L-isoleucyl-L-glutaminyl-L-asparaginyl-L-cysteinyl-L-prolyl-N4-(phenylacetyl-O-methyl-D-tyrosyl-L-phenylalanyl-L-glutaminyl-L-asparaginyl-L-alanyl-L-prolyl-L-arginyl-L-isoglutamyl-N5-acetyl-L-lysyl-L-ε-lysyl)-L-2,4-diaminobutyryl-, cyclic (1→6)-disulfide] (I: H-CFIQNCP[Dab]G-NH2 / II: PhAc-[dY](Me)FQNAPR[isoGln]K(Ac)[εLys]; disulfide I:1-I:6; amide I:8-II:C)
- CL renal ([1]; human, in vivo, iv, 0.1 mg, i.v. 0.1 mg, read-out: Renal CL, geometric mean (converted)): 14.5 mL/min
- CL renal ([1]; human, in vivo, iv, 0.1 mg, i.v. 0.1 mg, read-out: Renal CL, mean (converted)): 14.5 mL/min
- CL renal ([1]; human, in vivo, iv, 0.3 mg, i.v. 0.3 mg, read-out: Renal CL, geometric mean (converted)): 11 mL/min
- CL renal ([1]; human, in vivo, iv, 0.3 mg, i.v. 0.3 mg, read-out: Renal CL, mean (converted)): 11 mL/min
- CL renal ([1]; human, in vivo, iv, 0.45 mg, i.v. 0.45 mg, read-out: Renal CL, geometric mean (converted)): 14 mL/min
- CL renal ([1]; human, in vivo, iv, 0.45 mg, i.v. 0.45 mg, read-out: Renal CL, mean (converted)): 14.8 mL/min
- CL renal ([1]; human, in vivo, iv, 0.6 mg, i.v. 0.6 mg, read-out: Renal CL, geometric mean (converted)): 15.5 mL/min
- CL renal ([1]; human, in vivo, iv, 0.6 mg, i.v. 0.6 mg, read-out: Renal CL, mean (converted)): 15.8 mL/min
- CL renal ([1]; human, in vivo, iv, 0.9 mg, i.v. 0.9 mg, read-out: Renal CL, geometric mean (converted)): 14.8 mL/min
- CL renal ([1]; human, in vivo, iv, 0.9 mg, i.v. 0.9 mg, read-out: Renal CL, mean (converted)): 15.8 mL/min
- Vd ([1]; human, in vivo, iv, read-out: distribution volume (summary)): 15 to 20 L
- terminal half-life (summary) ([1]; i.v.): about 1.5 hours
- total clearance (summary) ([1]; i.v.): about 13 L/h
- AUC, geometric mean ([1]; i.v. 0.1 mg): 6.96 ng·h/mL
- AUC, mean ([1]; i.v. 0.1 mg): 7.01 ng·h/mL
- Cmax, geometric mean ([1]; i.v. 0.1 mg): 1.18 ng/mL
- Cmax, mean ([1]; i.v. 0.1 mg): 1.19 ng/mL
- T1/2, harmonic mean ([1]; i.v. 0.1 mg): 1.2 h
- Tot. CL, geometric mean ([1]; i.v. 0.1 mg): 14.4 L/h
- Tot. CL, mean ([1]; i.v. 0.1 mg): 14.5 L/h
- Vss, geometric mean ([1]; i.v. 0.1 mg): 21.7 L
- Vss, mean ([1]; i.v. 0.1 mg): 21.8 L
- tmax, mean ([1]; i.v. 0.1 mg): 5.4 h
- tmax, median ([1]; i.v. 0.1 mg): 5.0 h
- AUC, geometric mean ([1]; i.v. 0.3 mg): 24.6 ng·h/mL
- AUC, mean ([1]; i.v. 0.3 mg): 24.9 ng·h/mL
- Cmax, geometric mean ([1]; i.v. 0.3 mg): 4.45 ng/mL
- Cmax, mean ([1]; i.v. 0.3 mg): 4.49 ng/mL
- T1/2, harmonic mean ([1]; i.v. 0.3 mg): 1.2 h
- Tot. CL, geometric mean ([1]; i.v. 0.3 mg): 12.2 L/h
- Tot. CL, mean ([1]; i.v. 0.3 mg): 12.3 L/h
- Vss, geometric mean ([1]; i.v. 0.3 mg): 14.5 L
- Vss, mean ([1]; i.v. 0.3 mg): 15.0 L
- tmax, mean ([1]; i.v. 0.3 mg): 5.2 h
- tmax, median ([1]; i.v. 0.3 mg): 5.5 h
- AUC, geometric mean ([1]; i.v. 0.45 mg): 34.1 ng·h/mL
- AUC, mean ([1]; i.v. 0.45 mg): 34.5 ng·h/mL
- Cmax, geometric mean ([1]; i.v. 0.45 mg): 6.20 ng/mL
- Cmax, mean ([1]; i.v. 0.45 mg): 6.26 ng/mL
- Tot. CL, geometric mean ([1]; i.v. 0.45 mg): 13.2 L/h
- Tot. CL, mean ([1]; i.v. 0.45 mg): 13.3 L/h
- Vss, geometric mean ([1]; i.v. 0.45 mg): 15.2 L
- Vss, mean ([1]; i.v. 0.45 mg): 15.5 L
- tmax, mean ([1]; i.v. 0.45 mg): 5.0 h
- tmax, median ([1]; i.v. 0.45 mg): 5.0 h
- AUC, geometric mean ([1]; i.v. 0.6 mg): 46.5 ng·h/mL
- AUC, mean ([1]; i.v. 0.6 mg): 47.5 ng·h/mL
- Cmax, geometric mean ([1]; i.v. 0.6 mg): 8.32 ng/mL
- Cmax, mean ([1]; i.v. 0.6 mg): 8.45 ng/mL
- Tot. CL, geometric mean ([1]; i.v. 0.6 mg): 12.9 L/h
- Tot. CL, mean ([1]; i.v. 0.6 mg): 13.2 L/h
- Vss, geometric mean ([1]; i.v. 0.6 mg): 15.4 L
- Vss, mean ([1]; i.v. 0.6 mg): 16.3 L
- tmax, mean ([1]; i.v. 0.6 mg): 5.4 h
- tmax, median ([1]; i.v. 0.6 mg): 6.0 h
- AUC, geometric mean ([1]; i.v. 0.9 mg): 71.8 ng·h/mL
- AUC, mean ([1]; i.v. 0.9 mg): 72.5 ng·h/mL
- Cmax, geometric mean ([1]; i.v. 0.9 mg): 12.7 ng/mL
- Cmax, mean ([1]; i.v. 0.9 mg): 12.8 ng/mL
- T1/2, harmonic mean ([1]; i.v. 0.9 mg): ~1.7 h
- T1/2, mean ([1]; i.v. 0.9 mg): 2.0 h
- Tot. CL, geometric mean ([1]; i.v. 0.9 mg): 12.5 L/h
- Tot. CL, mean ([1]; i.v. 0.9 mg): 12.7 L/h
- Vss, geometric mean ([1]; i.v. 0.9 mg): 15.3 L
- Vss, mean ([1]; i.v. 0.9 mg): 15.5 L
- tmax, mean ([1]; i.v. 0.9 mg): 5.3 h
- tmax, median ([1]; i.v. 0.9 mg): 6.0 h
- dose proportionality of AUC and Cmax ([1]; i.v., 0.1-0.9 mg): proportionality for both parameters
- harmonic mean terminal half-life ([1]; i.v., dose groups other than 0.6 and 0.9 mg): 1.2 to 1.3 h
- exposure (AUC, Cmax), women versus men ([1]; i.v., also s.c.): higher exposure in women than in men
- terminal half-life ([1]; route not stated): 1.5 to 2 h
- effect on body temperature [2]: no apparent Compound 1-related effect on body temperature
- tolerability ([2]; single-dose SC and IV bolus): well tolerated
- Ascites Volume ([3]; 100 μg/kg SC b.i.d., after 3 days (vehicle 18.6)): 6.0 mL
- Body Weight ([3]; 100 μg/kg SC b.i.d., basal): 461 grs
- Sodium Excretion ([3]; 100 μg/kg SC b.i.d., basal): 0.6 mEq/day
- Urine Volume ([3]; 100 μg/kg SC b.i.d., basal): 9.7 mL/day
- Body Weight ([3]; 100 μg/kg SC b.i.d., day 1): 402 grs
- Sodium Excretion ([3]; 100 μg/kg SC b.i.d., day 1): 8.2 mEq/day
- Urine Volume ([3]; 100 μg/kg SC b.i.d., day 1): 51.6 mL/day
- Body Weight ([3]; 100 μg/kg SC b.i.d., day 2): 397 grs
- Sodium Excretion ([3]; 100 μg/kg SC b.i.d., day 2): 1.1 mEq/day
- Urine Volume ([3]; 100 μg/kg SC b.i.d., day 2): 21.8 mL/day
- Body Weight ([3]; 100 μg/kg SC b.i.d., day 3): 396 grs
- Sodium Excretion ([3]; 100 μg/kg SC b.i.d., day 3): 0.3 mEq/day
- Urine Volume ([3]; 100 μg/kg SC b.i.d., day 3): 16.6 mL/day
- effect on ascites ([3]; SC, three days): fully evacuated the ascites accumulated in the peritoneal cavity or markedly diminished ascites volume

Reference: patent US20260315609A1, “MIXED VASOPRESSIN RECEPTOR AGONIST-ANTAGONIST FOR TREATING END-STAGE LIVER DISEASE AND COMPLICATIONS ASSOCIATED THEREOF” (FERRING B.V., priority 2022, published 2026)
